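Briefly, cells in 96-well plates were exposed to five compound concentrations for 48 h, and endpoints were estimated by linear interpolation. Here, GI50 denotes the concentration required for 50% inhibition of growth. At the TGI there is no net growth.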
Legend:
Test in all cases: NCI-60 cell line screen, 48 h
[1] = system: M14 melanoma
[2] = system: KM12 colon
[3] = system: RPMI-8226 leukemia
[4] = system: HCT-15 colon
[5] = system: U251 CNS
[6] = system: CCRF-CEM leukemia
[7] = system: BT-549 breast
[8] = system: HOP-62 NSCLC
[9] = system: EKVX NSCLC
[10] = system: 786-0 renal
[11] = system: OVCAR-4 ovarian
[12] = system: HS 578T breast
[13] = system: OVCAR-3 ovarian
[14] = system: RXF 393 renal
[15] = system: A549 NSCLC
[16] = system: SN12C renal
[17] = system: NCI-H226 lung
[18] = system: SNB-19 CNS
[19] = system: UACC-257 melanoma
[20] = system: SK-MEL-2 melanoma
[21] = system: UO-31 renal
[22] = system: HOP-92 NSCLC
[23] = system: K-562 leukemia
[24] = system: OVCAR-5 ovarian
[25] = system: SK-MEL-28 melanoma
[26] = system: MDA-MB-435
[27] = system: LOX IMVI melanoma
[28] = system: NCI/ADR-RES ovarian
[29] = system: HT29 colon
[30] = system: SW-620 colon
[31] = system: MCF7 breast
[32] = system: COLO 205 colon
[33] = system: MDA-MB-231 breast
[34] = system: OVCAR-8 ovarian
[35] = system: SR leukemia
[36] = system: CAKI-1 renal
[37] = system: MALME-3M melanoma
[38] = system: T-47D breast
[39] = system: HCC-2998 colon
[40] = system: SF-268 CNS
[41] = system: TK-10 renal
[42] = system: SF-539 CNS
[43] = system: SNB-75 CNS
[44] = system: NCI-H460 lung
[45] = system: ACHN renal
[46] = system: NCI-H522 lung
[47] = system: SF-295 CNS
[48] = system: HL-60(TB) leukemia
[49] = system: IGROV1 ovarian
[50] = system: A498 renal
[51] = system: HCT-116 colon
[52] = system: NCI-H23 lung
[53] = system: DU-145 prostate
[54] = system: UACC-62 melanoma
[55] = system: SK-MEL-5 melanoma
[56] = system: PC-3 prostate
[57] = system: SK-OV-3 ovarian
[58] = system: MOLT-4 leukemia

## CCC(CO)Nc1nc(NCc2ccccc2O)c2ncn(C(C)C)c2n1 (stereo not given)
[1]
  GI50: 4.77 µM
  TGI: 18.8 µM
[2]
  GI50: 3.92 µM
  TGI: > 100 µM
[3]
  GI50: 4.41 µM
  TGI: 20.7 µM
[4]
  GI50: 2.25 µM
  TGI: > 100 µM
[5]
  GI50: 4.75 µM
  TGI: > 100 µM
[6]
  GI50: 2.21 µM
  TGI: 9.39 µM
[7]
  GI50: 2.76 µM
  TGI: > 100 µM
[8]
  GI50: 5.62 µM
  TGI: > 100 µM
[9]
  GI50: 15.2 µM
  TGI: > 100 µM
[10]
  GI50: 4.46 µM
  TGI: > 100 µM
[11]
  GI50: 5.42 µM
  TGI: 33.6 µM
[12]
  GI50: 3.1 µM
  TGI: 16.7 µM
[13]
  GI50: 3.1 µM
  TGI: 19.8 µM
[14]
  GI50: 3.29 µM
  TGI: > 100 µM
[15]
  GI50: 4.03 µM
  TGI: > 100 µM
[16]
  GI50: 2.77 µM
  TGI: 37.5 µM
[17]
  GI50: 8.95 µM
  TGI: 50.8 µM
[18]
  GI50: 3.3 µM
  TGI: 76 µM
[19]
  GI50: 32.2 µM
  TGI: > 100 µM
[20]
  GI50: 1.79 µM
  TGI: 5.83 µM
[21]
  GI50: 0.0777 µM
  TGI: 4.27 µM
[22]
  GI50: 4.97 µM
  TGI: 26.2 µM
[23]
  GI50: 0.628 µM
  TGI: 16.4 µM
[24]
  GI50: 3.72 µM
  TGI: > 100 µM
[25]
  GI50: 2.35 µM
  TGI: 12.8 µM
[26]
  GI50: 2.64 µM
  TGI: 9.34 µM
[27]
  GI50: 2.63 µM
  TGI: > 100 µM
[28]
  GI50: 6.63 µM
  TGI: 53.9 µM
[29]
  GI50: 3.67 µM
  TGI: 60.1 µM
[30]
  GI50: 3.34 µM
  TGI: > 100 µM
[31]
  GI50: 2.88 µM
  TGI: 8.73 µM
[32]
  GI50: 1.95 µM
  TGI: 3.89 µM
[33]
  GI50: 4.22 µM
  TGI: 38 µM
[34]
  GI50: 4.21 µM
  TGI: > 100 µM
[35]
  GI50: 1.35 µM
  TGI: 4.1 µM
[36]
  GI50: 15.6 µM
  TGI: 63.4 µM
[37]
  GI50: 40.1 µM
  TGI: > 100 µM
[38]
  GI50: 5.07 µM
  TGI: 32.8 µM
[39]
  GI50: 0.215 µM
  TGI: 6.98 µM
[40]
  GI50: 2.55 µM
  TGI: 13 µM
[41]
  GI50: 10.2 µM
  TGI: > 100 µM
[42]
  GI50: 3.72 µM
  TGI: 28.4 µM
[43]
  GI50: 1.96 µM
  TGI: 6.82 µM
[44]
  GI50: 2.45 µM
  TGI: 11.8 µM
[45]
  GI50: 1.96 µM
  TGI: > 100 µM
[46]
  GI50: 1.8 µM
  TGI: 8.52 µM
[47]
  GI50: 2.95 µM
  TGI: 8.03 µM
[48]
  GI50: 2.08 µM
  TGI: 4.58 µM
[49]
  GI50: 1.81 µM
  TGI: 5.64 µM
[50]
  GI50: 3.66 µM
  TGI: 18 µM
[51]
  GI50: 2.65 µM
  TGI: > 100 µM
[52]
  GI50: 2.98 µM
  TGI: 15.7 µM
[53]
  GI50: 4.46 µM
  TGI: > 100 µM
[54]
  GI50: 2.3 µM
  TGI: 12.5 µM
[55]
  GI50: 2.54 µM
  TGI: 11.9 µM
[56]
  GI50: 5.67 µM
  TGI: 30.8 µM
[57]
  GI50: 5.95 µM
  TGI: 41 µM
[58]
  GI50: 2.91 µM
  TGI: 12.9 µM

## CC(OC(C)(C)C)[C@H](NC(=O)OC(C)(C)C)C(=O)O (stereo not given in full)
[1]
  TGI: > 100 µM
[2]
  TGI: > 100 µM
[3]
  TGI: > 100 µM
[4]
  TGI: > 100 µM
[5]
  TGI: > 100 µM
[6]
  TGI: > 100 µM
[7]
  TGI: > 100 µM
[8]
  TGI: > 100 µM
[9]
  TGI: > 100 µM
[10]
  TGI: > 100 µM
[11]
  TGI: > 100 µM
[12]
  TGI: > 100 µM
[13]
  TGI: > 100 µM
[15]
  TGI: > 100 µM
[16]
  TGI: > 100 µM
[17]
  TGI: > 100 µM
[18]
  TGI: > 100 µM
[19]
  TGI: > 100 µM
[21]
  TGI: > 100 µM
[22]
  TGI: > 100 µM
[23]
  TGI: > 100 µM
[24]
  TGI: > 100 µM
[26]
  TGI: > 100 µM
[27]
  TGI: > 100 µM
[28]
  TGI: > 100 µM
[29]
  TGI: > 100 µM
[30]
  TGI: > 100 µM
[31]
  TGI: > 100 µM
[32]
  TGI: > 100 µM
[33]
  TGI: > 100 µM
[34]
  TGI: > 100 µM
[35]
  TGI: > 100 µM
[36]
  TGI: > 100 µM
[37]
  TGI: > 100 µM
[38]
  TGI: > 100 µM
[39]
  TGI: > 100 µM
[40]
  TGI: > 100 µM
[41]
  TGI: > 100 µM
[42]
  TGI: > 100 µM
[44]
  TGI: > 100 µM
[45]
  TGI: > 100 µM
[46]
  TGI: > 100 µM
[47]
  TGI: > 100 µM
[48]
  TGI: > 100 µM
[49]
  TGI: > 100 µM
[50]
  TGI: > 100 µM
[51]
  TGI: > 100 µM
[52]
  TGI: > 100 µM
[53]
  TGI: > 100 µM
[54]
  TGI: > 100 µM
[55]
  TGI: > 100 µM
[56]
  TGI: > 100 µM
[57]
  TGI: > 100 µM
[58]
  TGI: > 100 µM

Reference: PubChem BioAssay (NCI)
